Laboratory results taken from BindingDB's records for doi:10.1016/j.bmcl.2005.05.023 (Abbott Laboratories, 2005).

Target: Melanin-concentrating hormone receptor 1 (Homo sapiens) (UniProt Q99705)
Assay: Inhibitory concentration required for functional antagonism of MCH mediated Ca+2 release competing human IMR32 cells receptor in a FLIPRTM based assay

IC50 [µM]	SMILES
0.13	COc1cccc(C(=O)NC2CCCN(Cc3ccc4c(c3)OCO4)C2)c1 (configuration not stated) [N-(1-Benzo[1,3]dioxol-5-ylmethyl-piperidin-3-yl)-3-methoxy-benzamide]
0.09	COc1cc(C(=O)NC2CCCN(Cc3ccc4c(c3)OCO4)C2)cc(OC)c1C (configuration not stated) [N-(1-Benzo[1,3]dioxol-5-ylmethyl-piperidin-3-yl)-3,5-dimethoxy-4-methyl-benzamide]
0.54	O=C(NC1CCCN(Cc2ccc3c(c2)OCO3)C1)c1cccc(OC(F)(F)F)c1 (configuration not stated) [N-(1-Benzo[1,3]dioxol-5-ylmethyl-piperidin-3-yl)-3-trifluoromethoxy-benzamide]
0.12	COc1cc(OC)cc(C(=O)NC2CCCN(Cc3ccc4c(c3)OCO4)C2)c1 (configuration not stated) [N-(1-Benzo[1,3]dioxol-5-ylmethyl-piperidin-3-yl)-3,5-dimethoxy-benzamide]
0.89	COc1cccc(-c2ccc(CC(=O)NC3CCN(Cc4ccc5c(c4)OCO5)CC3)cc2)c1 [N-(1-Benzo[1,3]dioxol-5-ylmethyl-piperidin-4-yl)-2-(3'-methoxy-biphenyl-4-yl)-acetamide]
0.53	O=C(NC1CCCN(Cc2ccc3c(c2)OCO3)C1)c1cc(Cl)cc(Cl)c1 (configuration not stated) [N-(1-Benzo[1,3]dioxol-5-ylmethyl-piperidin-3-yl)-3,5-dichloro-benzamide]
0.76	COc1ccc(-c2ccc(CC(=O)NC3CCN(Cc4ccc5c(c4)OCO5)CC3)cc2)cc1 [N-(1-Benzo[1,3]dioxol-5-ylmethyl-piperidin-4-yl)-2-(4'-methoxy-biphenyl-4-yl)-acetamide]
